Results published in publication PMC12000319, “Proton conductance by human uncoupling protein 1 is inhibited by purine and pyrimidine nucleotides” (The EMBO Journal, 2025).
Values joined by “and” are separate entries in the source; they are usually repeats but may differ in a detail not shown here. Equal values may be shown once. Read-outs that look alike come from different tables or passages of the source.

Tests used:
UCP1 [1] = test system: UCP1; set-up: method as in Heaton and Nicholls, 1977; Divakaruni et al, 2012; conditions: whole mitochondria; ref Heaton and Nicholls, 1977; Divakaruni et al, 2012; cited from earlier work
human DIC (SLC25A10) = target: T1, human DIC (SLC25A10) (Homo sapiens, UniProt Q9UBX3); test: Differential scanning fluorimetry (nanoDSF) thermal stability shift assay; format: binding; conditions: 1 mM nucleotide, pH 6.0, single repeats (source data Fig. 4A)
T1 construct: His8 (N, cleaved yes); Factor Xa protease cleavage site (N, cleaved yes); made in house; host or cells: Saccharomyces cerevisiae protease-deficient strain BJ2186
T1 sequence (Q9UBX3 1-287): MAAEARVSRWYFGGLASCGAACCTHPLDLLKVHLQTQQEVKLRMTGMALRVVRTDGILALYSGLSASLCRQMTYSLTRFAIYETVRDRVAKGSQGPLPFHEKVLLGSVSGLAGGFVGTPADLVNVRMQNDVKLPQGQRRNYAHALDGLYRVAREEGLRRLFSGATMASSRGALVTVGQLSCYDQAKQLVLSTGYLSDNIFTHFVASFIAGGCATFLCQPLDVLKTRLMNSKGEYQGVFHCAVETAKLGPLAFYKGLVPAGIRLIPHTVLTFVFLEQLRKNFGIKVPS

UCP1 [2] = test system: UCP1; set-up: method as in Heaton and Nicholls, 1977; conditions: ref Heaton and Nicholls, 1977; cited from earlier work
UCP1 [3] = target: T2, UCP1 (Homo sapiens, UniProt P25874); test: Isothermal titration calorimetry of nucleotide binding; set-up: isotherm data point (enthalpy change per injection): unit not given here; conditions: for isotherm data point (enthalpy change per injection): representative isotherm, pH 6.0, 20 °C;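 on all read-outs here: purified human UCP1 in cacodylate buffer with lauryl maltose neopentyl glycol and cardiolipin, titrated with nucleotides, isotherms fitted by one-site model yielding ΔH, Kd and stoichiometry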
T2 construct: His8 (N, cleaved yes); Factor Xa protease cleavage site (N, cleaved yes); made in house; host or cells: Saccharomyces cerevisiae strain W303.1B
T2 sequence (P25874 1-307): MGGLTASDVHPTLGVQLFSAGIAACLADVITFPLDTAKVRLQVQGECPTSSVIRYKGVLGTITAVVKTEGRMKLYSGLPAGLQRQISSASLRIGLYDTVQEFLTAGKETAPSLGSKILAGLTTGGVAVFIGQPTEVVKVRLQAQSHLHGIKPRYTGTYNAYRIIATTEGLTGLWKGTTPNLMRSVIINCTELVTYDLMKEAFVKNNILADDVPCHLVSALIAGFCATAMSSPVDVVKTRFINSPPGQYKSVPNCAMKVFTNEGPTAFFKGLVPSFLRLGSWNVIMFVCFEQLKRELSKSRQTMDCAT

UCP1 [4] = target: T2, UCP1; test: Differential scanning fluorimetry (nanoDSF) thermal stability shift assay; format: binding; conditions: for ΔTm at 1000 µM: read-out: thermal shift (ΔTm)

Q: With O=c1ccn([C@@H]2O[C@H](CO[P@@](=O)(O)O[P@@](=O)(O)OP(=O)(O)O)[C@@H](O)[C@H]2O)c(=O)[nH]1 (stereo in doubt) [UTP, uridine triphosphate] as the molecule, how does the “competition with GDP binding” value (UCP1 [1]) read?
A: Its value is “could only weakly compete with GDP binding”.

Q: What about the “change in apparent melting temperature (ΔTm) of hDIC” value (human DIC (SLC25A10)) of the same molecule?
A: Its value is 0.8 and 0.6.

Q: And the “inhibition of proton conductance” value (UCP1 [2])?
A: The value was “significantly lower than that of purine nucleotides”.

Q: What about the “binding affinity to UCP1 (in words)” value (UCP1 [3]; ITC) of the same molecule?
A: The value was “intermediary affinities”.

Q: What about the “isotherm data point (enthalpy change per injection)” value (UCP1 [3]; Molar ratio (Nucleotide/UCP) 0.120417) of the same molecule?
A: The value was -22.5081.

Q: And the “isotherm data point (enthalpy change per injection)” value (UCP1 [3]; Molar ratio (Nucleotide/UCP) 0.181226)?
A: The value was -22.8003.

Q: What about the “isotherm data point (enthalpy change per injection)” value (UCP1 [3]; Molar ratio (Nucleotide/UCP) 0.242439) of the same molecule?
A: The value was -21.4037.

Q: What about the “isotherm data point (enthalpy change per injection)” value (UCP1 [3]; Molar ratio (Nucleotide/UCP) 0.304059) of the same molecule?
A: Its value is -20.9646.

Q: And the “isotherm data point (enthalpy change per injection)” value (UCP1 [3]; Molar ratio (Nucleotide/UCP) 0.366087)?
A: The value was -21.4794.

Q: And the “isotherm data point (enthalpy change per injection)” value (UCP1 [3]; Molar ratio (Nucleotide/UCP) 0.428528)?
A: The value was -19.8691.

Q: What about the “isotherm data point (enthalpy change per injection)” value (UCP1 [3]; Molar ratio (Nucleotide/UCP) 0.491383) of the same molecule?
A: Its value is -17.9061.

Q: And the “isotherm data point (enthalpy change per injection)” value (UCP1 [3]; Molar ratio (Nucleotide/UCP) 0.554656)?
A: The value was -18.3443.

Q: What about the “isotherm data point (enthalpy change per injection)” value (UCP1 [3]; Molar ratio (Nucleotide/UCP) 0.618348) of the same molecule?
A: Its value is -16.1153.

Q: What about the “isotherm data point (enthalpy change per injection)” value (UCP1 [3]; Molar ratio (Nucleotide/UCP) 0.682464) of the same molecule?
A: Its value is -14.9337.

Q: And the “isotherm data point (enthalpy change per injection)” value (UCP1 [3]; Molar ratio (Nucleotide/UCP) 0.747006)?
A: The value was -12.0255.

Q: What about the “isotherm data point (enthalpy change per injection)” value (UCP1 [3]; Molar ratio (Nucleotide/UCP) 0.811976) of the same molecule?
A: Its value is -11.5031.

Q: And the “isotherm data point (enthalpy change per injection)” value (UCP1 [3]; Molar ratio (Nucleotide/UCP) 0.877378)?
A: The value was -10.3349.

Q: What about the “isotherm data point (enthalpy change per injection)” value (UCP1 [3]; Molar ratio (Nucleotide/UCP) 0.943214) of the same molecule?
A: The value was -7.729.

Q: What about the “isotherm data point (enthalpy change per injection)” value (UCP1 [3]; Molar ratio (Nucleotide/UCP) 1.00949) of the same molecule?
A: The value was -6.6657.

Q: And the “isotherm data point (enthalpy change per injection)” value (UCP1 [3]; Molar ratio (Nucleotide/UCP) 1.0762)?
A: The value was -5.447.

Q: What about the “isotherm data point (enthalpy change per injection)” value (UCP1 [3]; Molar ratio (Nucleotide/UCP) 1.14336) of the same molecule?
A: The value was -3.759.

Q: And the “isotherm data point (enthalpy change per injection)” value (UCP1 [3]; Molar ratio (Nucleotide/UCP) 1.21096)?
A: Its value is -3.295.

Q: And the “isotherm data point (enthalpy change per injection)” value (UCP1 [3]; Molar ratio (Nucleotide/UCP) 1.27901)?
A: The value was -1.9786.

Q: What about the “isotherm data point (enthalpy change per injection)” value (UCP1 [3]; Molar ratio (Nucleotide/UCP) 1.34751) of the same molecule?
A: Its value is -1.408.

Q: And the “isotherm data point (enthalpy change per injection)” value (UCP1 [3]; Molar ratio (Nucleotide/UCP) 1.41647)?
A: Its value is -0.3952.

Q: And the “isotherm data point (enthalpy change per injection)” value (UCP1 [3]; Molar ratio (Nucleotide/UCP) 1.48589)?
A: The value was -0.4843.

Q: And the “isotherm data point (enthalpy change per injection)” value (UCP1 [3]; Molar ratio (Nucleotide/UCP) 1.55577)?
A: The value was -0.1953.

Q: What about the “isotherm data point (enthalpy change per injection)” value (UCP1 [3]; Molar ratio (Nucleotide/UCP) 1.62611) of the same molecule?
A: The value was -0.1185.

Q: What about the “isotherm data point (enthalpy change per injection)” value (UCP1 [3]; Molar ratio (Nucleotide/UCP) 1.69692) of the same molecule?
A: The value was 0.2895.

Q: And the “isotherm data point (enthalpy change per injection)” value (UCP1 [3]; Molar ratio (Nucleotide/UCP) 1.76819)?
A: The value was -0.544.

Q: What about the “isotherm data point (enthalpy change per injection)” value (UCP1 [3]; Molar ratio (Nucleotide/UCP) 1.83995) of the same molecule?
A: The value was -0.2075.

Q: And the “isotherm data point (enthalpy change per injection)” value (UCP1 [3]; Molar ratio (Nucleotide/UCP) 1.91217)?
A: The value was -0.08977.

Q: What about the “isotherm data point (enthalpy change per injection)” value (UCP1 [3]; Molar ratio (Nucleotide/UCP) 1.98488) of the same molecule?
A: The value was 0.02152.

Q: What about the “temperature shift (ΔTm)” value (UCP1 [4]; 1 mM nucleotide, pH 6.0, detergent-solubilised UCP1, mean of three biological repeats) of the same molecule?
A: The value was 15.3 °C.

Q: And the “effect of Ca2+ or Mg2+ on nucleotide binding to UCP1 (ΔTm)” value (UCP1 [4]; 1 mM nucleotide, pH 6.0, range of Ca2+ or Mg2+ concentrations, until supramaximal concentrations)?
A: Its value is “no difference for either cation”.

Q: What about the ΔTm at 1000 µM (UCP1 [4]; pH 6, 1 mM nucleotide, pH 6.0, single repeats (source data Fig. 1D)) of the same molecule?
A: The ΔTm at 1000 µM was 15.7 °C.

Q: What about the ΔTm at 1000 µM (UCP1 [4]; pH 6.5, 1 mM nucleotide, pH 6.5, single repeats (source data Fig. 1D)) of the same molecule?
A: The ΔTm at 1000 µM was 11.1 °C.

Q: And the ΔTm at 1000 µM (UCP1 [4]; pH 7, 1 mM nucleotide, pH 7.0, single repeats (source data Fig. 1D))?
A: The ΔTm at 1000 µM was 6.3 °C.

Q: And the ΔTm at 1000 µM (UCP1 [4]; pH 7.5, 1 mM nucleotide, pH 7.5, single repeats (source data Fig. 1D))?
A: Its ΔTm at 1000 µM is 1.4 °C.
